Legend:
[1] = human, in vivo; for AUCinf, geometric LS mean, Reference / Cmax, geometric LS mean, Reference: 400 mg
[2] = human, in vivo
[3] = in vivo

SMILES | AUCinf, geometric LS mean, Test [1] [µg·h/mL] | Cmax, geometric LS mean, Test [1] [µg/mL] | AUCinf, geometric LS mean, Reference [1] [µg·h/mL] | Cmax, geometric LS mean, Reference [1] [µg/mL] | Change in geometric mean AUCtau from the first to the last dose [2] | Fe0-8 recovered in urine, of the last dose [3]
Nc1nc(/C(=C/CC(=O)O)C(=O)N[C@@H]2C(=O)N3C(C(=O)O)=CCS[C@H]23)cs1 (relative stereo) [Cis-ceftibuten, cis-ceftibuten] | 79.03 | 15.41 | 90.09 | 17.56 | 44-52% | 50-68%
Nc1nc(/C(=C\CC(=O)O)C(=O)N[C@@H]2C(=O)N3C(C(=O)O)=CCS[C@H]23)cs1 (relative stereo) [Trans-ceftibuten, trans-ceftibuten] | 8.946 | 1.319 | 10.40 | 1.552 | 64-75% | 20-23%

Reference: publication PMC12406652 (Antimicrobial Agents and Chemotherapy, 2025)
